Earlier results as cited in patent US9505976B2, “Excitation-dependent fluorescent organic nanoparticles” (National Kaohsiung Normal University, priority 2013, dated 2016).

Details: in ethanol

## CCN(CC)c1ccc2c(C)cc(=O)oc2c1 [coumarin 1, 7-diethylamino-4-methylcoumarin]
  quantum yield of reference: 73%
